Assay results as given in patent publication US7388006B2, “Non-steroidal progesting” (Bayer Schering Pharma AG, priority 2002, dated 2008).

Assays:
thymus weight = experiment: Glucocorticoid/anti-glucocorticoid activity in vivo (changes in thymus weight)
rat mammary epithelium = experiment: Bioassay on proliferating/differentiating effects in the rat mammary epithelium (whole mount staining, terminal and alveolar endbuds); assay type: in vivo
Source text: The object of this test is to evaluate the effect of progestins on the development of the mammary gland, in particular on the formation of terminal end-buds in the mammary gland in estrogen primed rats. Progestins together with other hormones (prolactin, estrogens, glucocorticoids, growth hormones etc.) induce proliferation and differentiation of the mammary glandular epithelium. In particular, they are involved in the morphogenesis of alveolar and terminal end buds, the sites of milk protein production and secretion into the ductal lumen.
In order to determine the effects of test progestins according to the present invention, in particular compound ((+)-1), in mammary gland differentiation and proliferation, premature female rats (Wistar Han, SPF) are ovariectomized at the age of 21 days, 4 to 6 days before treatment start. The animals are treated for 6 days with standard estrogen (estrone (E1), 70 μg/kg) and the test progestin ((+)-1) (application volume: 0.1 ml/50 g body weight; vehicle: benzylbenzoate/castor oil (1+4 v/v); subcutaneous). Control groups are e.g.: vehicle, estrone without progestin, estradiol together with a known progestin, e.g. R5020 (promegestone). After the 6-day treatment the animals are killed with carbon dioxide.
For the whole mount staining, animals are shaved in the left abdominal inguinal mammary region, which is cut from the body together with the skin. For the histological/immunohistochemical analyses the right abdominal inguinal mammary gland is cut from the body together with the connective-tissue adhered thereto and fixed in 3.7% formalin in PBS (phosphate buffer saline; without Ca^2+/Mg^2+).
The preparations are fixed over night in alcohol-formalin according to the method of Tellyesniczky (see below). Then the mammary gland tissue and subcutis adhered thereto are stripped from the cutis and the preparations are again fixed over night. The further steps are as follows: ethanol 70%: 1.5 hours; acetone: 3×1.5 hours; acetone: over night; isopropanol: 1.5 hours; ethanol 96%: 2 hours; hematoxylin-iron: 3 hours; VE water: first rinse the preparations and then 2×0.5 hours; ethanol 70%: over night; ethanol 80%: 1.5 hours; ethanol 96%: 1.5 hours; isopropanol: 1.5 hours. The preparations are then moved to petri dishes and left in toluene for approximately 1 hour, i.e. until they have stopped to swim up. Then the preparations are treated with cedarwood oil (Merck, no. 1.06965). The incubation times above are minimum times and can be extended. In particular, incubation in ethanol 70% after fixation can be extended to at least 2.5 weeks.
Preparation of the solutions necessary for the whole mount staining: • a) Alcohol-formalin according to Tellyesniczky: formaldehyde 37%: 81.8 ml, ethanol 70%: 1636 ml, glacial acetic acid (to be added shortly before use): 81.8 ml (total: 1800 ml). • b) Hematoxylin mother solution: Hematoxylin (Merck, no. 1.15938): 10 g, ethanol 96%: 100 ml. The solution must stand for 48 hours at 37° C. before use. […]
By means of a 40-fold magnification, the terminal end buds near the nipple in direction of the tail are counted. […] For well-differentiated preparations this area may be reduced, with at least 250 buds to be counted. After counting, the number of end buds per 1 mm^2 is calculated.
The number of terminal and alveolar endbuds is counted per mm^2 +/− standard deviation (SD). […]

[1] = biological target: T1, estrogen receptor-α (ERα) (Homo sapiens, UniProt P03372); experiment: Binding to the estrogen receptor-α in vitro
T1 sequence (P03372 1-595): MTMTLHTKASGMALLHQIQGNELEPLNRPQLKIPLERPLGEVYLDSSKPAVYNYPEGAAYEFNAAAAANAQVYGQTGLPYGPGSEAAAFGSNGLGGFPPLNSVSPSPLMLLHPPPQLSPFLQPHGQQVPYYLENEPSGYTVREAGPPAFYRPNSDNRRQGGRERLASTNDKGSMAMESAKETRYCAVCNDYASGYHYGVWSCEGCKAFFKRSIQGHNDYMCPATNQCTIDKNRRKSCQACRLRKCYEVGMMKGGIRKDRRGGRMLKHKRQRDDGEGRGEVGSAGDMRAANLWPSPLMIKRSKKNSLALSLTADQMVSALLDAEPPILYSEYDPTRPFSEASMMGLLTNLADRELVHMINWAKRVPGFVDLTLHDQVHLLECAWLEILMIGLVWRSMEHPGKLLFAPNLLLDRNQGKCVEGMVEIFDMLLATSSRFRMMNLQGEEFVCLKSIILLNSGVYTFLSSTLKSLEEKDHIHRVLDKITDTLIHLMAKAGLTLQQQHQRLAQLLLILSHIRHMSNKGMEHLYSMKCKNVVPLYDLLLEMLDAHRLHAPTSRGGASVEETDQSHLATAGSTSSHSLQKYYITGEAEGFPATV

O=C1OCc2cc(NC(=O)C(O)(CC3(c4cc(C(F)(F)F)ccc4F)CC3)C(F)(F)F)ccc21 (single isomer, unassigned; (+)) [((+)-1), (+)-5-{2-hydroxy-3-[1-(2-fluoro-5-trifluoromethylphenyl)-cyclopropyl]-2-trifluoromethyl-propionylamino}-phthalide]
Glucocorticoid and anti-glucocorticoid activity in vivo (thymus weight): does not seem to exhibit any glucocorticoid or any anti-glucocorticoid activity in vivo | Threshold value for the induction of terminal and alveolar endbuds (rat mammary epithelium; FIG. 3): 100 µg/kg/day | Terminal and alveolar end bud formation, result in words (rat mammary epithelium; at doses where pregnancy is fully maintained): no effects on terminal and alveolar end bud formation can be observed | Mammary gland, whole mount staining (rat) [threshold value] (rat mammary epithelium; induction of terminal and alveolar endbuds): 0.1 mg/kg/day | Mammary gland, whole mount staining, factor compared to R5020 (rat mammary epithelium; median of three tests): ca. 1 | Dissociation in favor of uterotropic activity (uterus versus mammary gland) (rat mammary epithelium; pregnancy maintenance versus mammary gland): at least six fold | Affinity for the estrogen receptor-α (ERα) [1]: negligible affinity
